This passage reports EC50 results from patent publication US20230271949A1, “GLP-1R MODULATING COMPOUNDS” (ASCLETIS BIOSCIENCE CO., LTD., priority 2022, published 2023).

The test has as its target GLP-1R (Homo sapiens, UniProt P43220). Briefly: GLP-1R agonist cAMP stimulation assay (HTRF cAMP). The following applies: HEK293 cell line expressing GLP-1 target; HTRF cAMP agonist mode, 30 min at RT. Type of test: cell-based. An outline of the steps:
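GLP-1R-expressing cells were stimulated with 10-point, 3-fold compound dilutions for 30 min at RT; HTRF cAMP detection reagents were then added for 60 min and the 665/615 ratio read. Ratios were converted to cAMP via a standard curve and % activity scaled between DMSO and top-concentration GLP-1(7-37) reference wells.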
In general terms: Time-resolved FRET reads energy transfer from a long-lived donor to a nearby acceptor.

As a reminder, the EC50 is the concentration that produces a half-maximal response. High values mean weaker potency, low ones greater potency.

Chain of GLP-1R (P43220 24-463): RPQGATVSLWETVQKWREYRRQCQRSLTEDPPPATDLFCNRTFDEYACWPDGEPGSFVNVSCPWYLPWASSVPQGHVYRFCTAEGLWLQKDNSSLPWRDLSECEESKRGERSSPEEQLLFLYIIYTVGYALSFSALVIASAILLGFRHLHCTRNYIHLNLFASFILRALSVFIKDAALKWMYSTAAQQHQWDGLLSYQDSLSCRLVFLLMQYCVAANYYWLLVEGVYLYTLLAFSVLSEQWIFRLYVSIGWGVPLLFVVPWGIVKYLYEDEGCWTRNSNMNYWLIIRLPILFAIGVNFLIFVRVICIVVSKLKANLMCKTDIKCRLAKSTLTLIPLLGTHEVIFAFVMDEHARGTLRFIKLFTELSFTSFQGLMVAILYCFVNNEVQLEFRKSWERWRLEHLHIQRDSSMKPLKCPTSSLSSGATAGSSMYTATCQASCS

In the case of `CCc1n[nH]c2ccc(NC(=O)c3ccc4c(c3)nc(CN3CCC(c5cccc(OCc6ccc(C#N)cc6F)n5)CC3)n4C[C@@H]3CCO3)cc12` [Compound 135], the 50% effective concentration (EC50) was 1.25 nM.

Consider `Cc1n[nH]c2c(F)cc(C(=O)Nc3ccc4c(c3)nc(Cc3c(F)cc(-c5cccc6c5OC(C)(c5ccc(C#N)cc5F)O6)cc3F)n4CC3CCO3)cc12` (centres unmarked) [Compound 316], for which a half-maximal response (EC50) required 0.54 nM.

With `Cc1nc2ccc(NC(=O)c3ccc4c(c3)nc(CN3CCC(c5cccc(OCc6ccc(Cl)cc6F)n5)CC3)n4C[C@@H]3CCO3)cc2s1` [Compound 95], the EC50 turned out to be 62 nM.

Regarding `O=C(Nc1ccn2nccc2c1)c1ccc2c(c1)nc(CN1CC=C(c3cccc(OCc4ccc(Cl)cc4F)n3)CC1)n2CC1CCO1` (centres unmarked) [Compound 148], the 50% effective concentration (EC50) worked out at 21.1 nM.

Regarding `COCCn1c(CN2CCC(c3cccc(OCc4ccc(Cl)cc4F)n3)CC2)nc2cc(C(=O)NCc3ccc(O)c(C(=O)O)c3)ccc21` [Compound 37], the EC50 was 106 nM.

`CC(C)c1n[nH]c2ccc(C(=O)Nc3ccc4c(c3)nc(CN3CC=C(c5cccc6c5OC(C)(c5ccc(C#N)cc5F)O6)CC3)n4CC3CCO3)cc12` (centres unmarked) [Compound 311] returned a concentration for a half-maximal effect (EC50) of 0.39 nM.

With `Fc1cc(Cl)ccc1COc1cccc(C2=CCN(Cc3nc4cc(-c5nc(-c6cc(C(F)(F)F)[nH]n6)co5)ccc4n3C[C@@H]3CCO3)CC2)n1` [Compound 398], the EC50 was determined as 110 nM.

As to `Cc1n[nH]c2c(C(F)F)cc(C(=O)Nc3ccc4c(c3)nc(CN3CC=C(c5cccc(OCc6ccc(Cl)cc6F)n5)CC3)n4C[C@@H]3CCO3)cc12` [Compound 220], the EC50 turned out to be 0.44 nM.

Take `C[C@H](NC(=O)c1ccc2c(c1)nc(CN1CCC(c3cccc(OCc4ccc(Cl)cc4F)n3)CC1)n2C[C@@H]1CCO1)C(=O)N1C[C@H](O)C[C@H]1C(=O)O` [Compound 57]: it took 1.41 nM to reach a half-maximal effect (EC50).

Regarding `O=C(Nc1cnn2[nH]ccc12)c1ccc2c(c1)nc(CN1CC=C(c3cccc(OCc4ccc(Cl)cc4F)n3)CC1)n2C[C@@H]1CCO1` [Compound 401], the concentration for a half-maximal effect (EC50) is 21.8 nM.

With `Cc1n[nH]c2ccc(NC(=O)c3ccc4c(c3)nc(CN3CCC(c5cccc(OCc6ccc(C#N)c7ccccc67)n5)CC3)n4C[C@@H]3CCO3)cc12` [Compound 378], the EC50 was found to be 1.03 nM.

In turn, `Cn1c(=O)[nH]c2ccc(NC(=O)c3ccc4c(c3)nc(CN3CCC(c5cccc(OCc6ccc(Cl)cc6F)n5)CC3)n4C[C@@H]3CCO3)cc21` [Compound 91] returned a 50% effective concentration (EC50) of 26.2 nM.

With `Cc1n[nH]c2c(F)cc(NC(=O)c3ccc4nc(CN5CC=C(c6cccc(OCc7ccc(C#N)cc7F)n6)CC5)n(CC5CCO5)c4c3)cc12` (centres unmarked) [Compound 274], the EC50 was 1.65 nM.

Compound `Cc1cc(-c2cn(-c3ccc4c(c3)nc(CN3CC=C(c5cccc(OCc6ccc(Cl)cc6F)n5)CC3)n4C[C@@H]3CCO3)cn2)[nH]n1` [Compound 397] had an EC50 of 127 nM.

For the compound `Cc1n[nH]c2c(C)cc(C(=O)Nc3ccc4c(c3)nc(C(F)(F)N3CC=C(c5cccc(OCc6ccc(Cl)cc6F)n5)CC3)n4C[C@@H]3CCO3)cc12` [Compound 256], the 50% effective concentration (EC50) came to 12.5 nM.

For `COCCn1c(CN2CCC(c3cccc(OCc4ccc(Cl)cc4F)n3)CC2)nc2cc(C(=O)NCCc3cccc(O)c3)ccc21` [Compound 19], the EC50 stood at 176 nM.

Consider `O=C(Nc1ccc2c(c1)nc(CN1CC=C(c3cccc(OCc4ccc(Cl)cc4F)n3)CC1)n2C[C@@H]1CCO1)c1ccc2[nH]nc(C(F)(F)F)c2c1` [Compound 215], for which a half-maximal response (EC50) required 2.11 nM.

Compound `Cc1n[nH]c2c(F)cc(NC(=O)c3ccc4c(c3)nc(CN3CCC(c5cccc(OCc6ccc(C#N)c7c6ncn7C)n5)CC3)n4C[C@@H]3CCO3)cc12` [Compound 379] came in with an EC50 of 3.12 nM.

Take `O=C(Nc1ccc2c(c1)nc(CN1CC=C(c3cccc(OCc4ccc(Cl)cc4F)n3)CC1)n2C[C@@H]1CCO1)c1ccc2[nH]nc(C3CC3)c2c1` [Compound 216]: the concentration for a half-maximal effect (EC50) stood at 0.82 nM.

On to `CC(C)c1n[nH]c2ccc(C(=O)Nc3ccc4c(c3)nc(CN3CC=C(c5cccc(OCc6ccc(Cl)cc6F)n5)CC3)n4C[C@@H]3CCO3)cc12` [Compound 200], for which the EC50 is 0.82 nM.
